Experimental data as given in ChEMBL document CHEMBL5303573, “Mapping human microbiome drug metabolism by gut bacteria and their genes” (Nature, 2019).

What was measured:
[1] = bacteroides fragilis, 12 h, 2 µM
Description: The drug is tested on Bacteroides fragilis strain: NCTC 9343 for biotransformation. The drug concentrations were measured before and after a 12-h incubation by liquid-chromatography-coupled mass spectrometry (LC–MS)

[2] = The drug is tested on Clostridium sp. strain: fecal isolate for biotransformation. The drug concentrations were measured before and after a 12-h incubation by liquid-chromatography-coupled mass spectrometry (LC–MS); settings: 2 µM
[3] = bacteroides thetaiotaomicron, 12 h, 2 µM
Description: The drug is tested on Bacteroides thetaiotaomicron strain: 3731 for biotransformation. The drug concentrations were measured before and after a 12-h incubation by liquid-chromatography-coupled mass spectrometry (LC–MS)

[4] = The drug is tested on Bacteroides fragilis strain: HMW610 for biotransformation. The drug concentrations were measured before and after a 12-h incubation by liquid-chromatography-coupled mass spectrometry (LC–MS); settings: 2 µM
[5] = The drug is tested on Providencia rettgeri strain: DSM1131 for biotransformation. The drug concentrations were measured before and after a 12-h incubation by liquid-chromatography-coupled mass spectrometry (LC–MS); assay type: ADME; set-up: dose 2 uM, timepoint 0 vs 12 hours; settings: 2 µM
[6] = The drug is tested on Clostridium symbiosum strain: ATCC14940 for biotransformation. The drug concentrations were measured before and after a 12-h incubation by liquid-chromatography-coupled mass spectrometry (LC–MS); settings: 2 µM
[7] = parabacteroides johnsonii, 12 h, 2 µM
Description: The drug is tested on Parabacteroides johnsonii strain: DSM18315 for biotransformation. The drug concentrations were measured before and after a 12-h incubation by liquid-chromatography-coupled mass spectrometry (LC–MS)

[8] = The drug is tested on Dorea formicigenerans strain: ATCC27755 for biotransformation. The drug concentrations were measured before and after a 12-h incubation by liquid-chromatography-coupled mass spectrometry (LC–MS); settings: 2 µM
[9] = The drug is tested on Blautia luti strain: DSM14534 for biotransformation. The drug concentrations were measured before and after a 12-h incubation by liquid-chromatography-coupled mass spectrometry (LC–MS); assay type: ADME; set-up: dose 2 uM, timepoint 0 vs 12 hours; settings: 2 µM
[10] = akkermansia muciniphila, 12 h, 2 µM
Description: The drug is tested on Akkermansia muciniphila strain: ATCC BAA-835 for biotransformation. The drug concentrations were measured before and after a 12-h incubation by liquid-chromatography-coupled mass spectrometry (LC–MS)

[11] = anaerostipes sp., 12 h, 2 µM
Description: The drug is tested on Anaerostipes sp. strain: fecal isolate for biotransformation. The drug concentrations were measured before and after a 12-h incubation by liquid-chromatography-coupled mass spectrometry (LC–MS)

[12] = segatella copri, 12 h, 2 µM
Description: The drug is tested on Prevotella copri strain: DSM18205 for biotransformation. The drug concentrations were measured before and after a 12-h incubation by liquid-chromatography-coupled mass spectrometry (LC–MS)

[13] = The drug is tested on Bacteroides caccae strain: ATCC43185 for biotransformation. The drug concentrations were measured before and after a 12-h incubation by liquid-chromatography-coupled mass spectrometry (LC–MS); settings: 2 µM
[14] = The drug is tested on Clostridium sporogenes strain: ATCC15579 for biotransformation. The drug concentrations were measured before and after a 12-h incubation by liquid-chromatography-coupled mass spectrometry (LC–MS); settings: 2 µM
[15] = The drug is tested on Subdoligranulum variabile strain: DSM15176 for biotransformation. The drug concentrations were measured before and after a 12-h incubation by liquid-chromatography-coupled mass spectrometry (LC–MS); settings: 2 µM
[16] = The drug is tested on Collinsella intestinalis strain: DSM13280 for biotransformation. The drug concentrations were measured before and after a 12-h incubation by liquid-chromatography-coupled mass spectrometry (LC–MS); settings: 2 µM
[17] = The drug is tested on Ruminococcus torques strain: ATCC27756 for biotransformation. The drug concentrations were measured before and after a 12-h incubation by liquid-chromatography-coupled mass spectrometry (LC–MS); assay type: ADME; set-up: dose 2 uM, timepoint 0 vs 12 hours; settings: 2 µM
[18] = The drug is tested on Providencia stuartii strain: ATCC25827 for biotransformation. The drug concentrations were measured before and after a 12-h incubation by liquid-chromatography-coupled mass spectrometry (LC–MS); settings: 2 µM
[19] = The drug is tested on Edwardsiella tarda strain: ATCC23685 for biotransformation. The drug concentrations were measured before and after a 12-h incubation by liquid-chromatography-coupled mass spectrometry (LC–MS); settings: 2 µM
[20] = bacteroides fragilis, 12 h, 2 µM; remark: listed apart in the source
Description: The drug is tested on Bacteroides fragilis strain: 3397 (T10) for biotransformation. The drug concentrations were measured before and after a 12-h incubation by liquid-chromatography-coupled mass spectrometry (LC–MS)

CC[C@H](C)C(=O)O[C@H]1CCC=C2C=C[C@H](C)[C@H](CC[C@@H]3C[C@@H](O)CC(=O)O3)[C@H]21 [MEVASTATIN]
Bacterial Biotransformation [1]: Compound metabolized
Bacterial Biotransformation [2]: Compound metabolized
Bacterial Biotransformation [3]: Compound metabolized
Bacterial Biotransformation [4]: Compound NOT metabolized
Bacterial Biotransformation [5]: Compound metabolized
Bacterial Biotransformation [6]: Compound metabolized
Bacterial Biotransformation [7]: Compound metabolized
Bacterial Biotransformation [8]: Compound metabolized
Bacterial Biotransformation [9]: Compound metabolized
Bacterial Biotransformation [10]: Compound metabolized
Bacterial Biotransformation [11]: Compound metabolized
Bacterial Biotransformation [12]: Compound metabolized
Bacterial Biotransformation [13]: Compound metabolized
Bacterial Biotransformation [14]: Compound metabolized
Bacterial Biotransformation [15]: Compound metabolized
Bacterial Biotransformation [16]: Compound metabolized
Bacterial Biotransformation [17]: Compound metabolized
Bacterial Biotransformation [18]: Compound metabolized
Bacterial Biotransformation [19]: Compound metabolized
Bacterial Biotransformation [20]: Compound metabolized

C[C@@H]1CC[C@H]2[C@@H](C)C(=O)O[C@@H]3O[C@@]4(C)CC[C@@H]1[C@]32OO4 [ARTEMISININ]
Bacterial Biotransformation [1]: Compound metabolized
Bacterial Biotransformation [2]: Compound metabolized
Bacterial Biotransformation [3]: Compound metabolized
Bacterial Biotransformation [4]: Compound metabolized
Bacterial Biotransformation [5]: Compound metabolized
Bacterial Biotransformation [6]: Compound metabolized
Bacterial Biotransformation [7]: Compound metabolized
Bacterial Biotransformation [8]: Compound metabolized
Bacterial Biotransformation [9]: Compound metabolized
Bacterial Biotransformation [10]: Compound metabolized
Bacterial Biotransformation [11]: Compound metabolized
Bacterial Biotransformation [12]: Compound metabolized
Bacterial Biotransformation [13]: Compound metabolized
Bacterial Biotransformation [14]: Compound metabolized
Bacterial Biotransformation [15]: Compound metabolized
Bacterial Biotransformation [16]: Compound metabolized
Bacterial Biotransformation [17]: Compound metabolized
Bacterial Biotransformation [18]: Compound metabolized
Bacterial Biotransformation [19]: Compound metabolized
Bacterial Biotransformation [20]: Compound metabolized

COc1ccc2[nH]c([S+]([O-])Cc3ncc(C)c(OC)c3C)nc2n1 (stereo not given) [TENATOPRAZOLE]
Bacterial Biotransformation [1]: Compound metabolized
Bacterial Biotransformation [2]: Compound metabolized
Bacterial Biotransformation [3]: Compound metabolized
Bacterial Biotransformation [4]: Compound metabolized
Bacterial Biotransformation [5]: Compound metabolized
Bacterial Biotransformation [7]: Compound metabolized
Bacterial Biotransformation [8]: Compound metabolized
Bacterial Biotransformation [9]: Compound metabolized
Bacterial Biotransformation [10]: Compound metabolized
Bacterial Biotransformation [12]: Compound metabolized
Bacterial Biotransformation [13]: Compound metabolized
Bacterial Biotransformation [14]: Compound metabolized
Bacterial Biotransformation [15]: Compound metabolized
Bacterial Biotransformation [16]: Compound metabolized
Bacterial Biotransformation [17]: Compound metabolized
Bacterial Biotransformation [18]: Compound metabolized
Bacterial Biotransformation [19]: Compound metabolized
Bacterial Biotransformation [20]: Compound metabolized

CNCCC(Oc1ccc(C(F)(F)F)cc1)c1ccccc1 (stereo not given) [FLUOXETINE]
Bacterial Biotransformation [1]: Compound metabolized
Bacterial Biotransformation [2]: Compound metabolized
Bacterial Biotransformation [3]: Compound metabolized
Bacterial Biotransformation [4]: Compound metabolized
Bacterial Biotransformation [5]: Compound NOT metabolized
Bacterial Biotransformation [7]: Compound metabolized
Bacterial Biotransformation [8]: Compound metabolized
Bacterial Biotransformation [9]: Compound NOT metabolized
Bacterial Biotransformation [10]: Compound metabolized
Bacterial Biotransformation [11]: Compound metabolized
Bacterial Biotransformation [12]: Compound metabolized
Bacterial Biotransformation [13]: Compound metabolized
Bacterial Biotransformation [14]: Compound metabolized
Bacterial Biotransformation [15]: Compound metabolized
Bacterial Biotransformation [16]: Compound NOT metabolized
Bacterial Biotransformation [17]: Compound NOT metabolized
Bacterial Biotransformation [18]: Compound metabolized
Bacterial Biotransformation [19]: Compound NOT metabolized
Bacterial Biotransformation [20]: Compound metabolized

CCS(=O)(=O)CCn1c([N+](=O)[O-])cnc1C [TINIDAZOLE]
Bacterial Biotransformation [1]: Compound metabolized
Bacterial Biotransformation [2]: Compound metabolized
Bacterial Biotransformation [3]: Compound metabolized
Bacterial Biotransformation [4]: Compound metabolized
Bacterial Biotransformation [5]: Compound NOT metabolized
Bacterial Biotransformation [6]: Compound metabolized
Bacterial Biotransformation [7]: Compound metabolized
Bacterial Biotransformation [8]: Compound metabolized
Bacterial Biotransformation [9]: Compound metabolized
Bacterial Biotransformation [10]: Compound metabolized
Bacterial Biotransformation [11]: Compound metabolized
Bacterial Biotransformation [12]: Compound metabolized
Bacterial Biotransformation [13]: Compound metabolized
Bacterial Biotransformation [14]: Compound metabolized
Bacterial Biotransformation [15]: Compound metabolized
Bacterial Biotransformation [16]: Compound metabolized
Bacterial Biotransformation [17]: Compound metabolized
Bacterial Biotransformation [18]: Compound NOT metabolized
Bacterial Biotransformation [20]: Compound metabolized

COC(=O)[C@H](c1ccccc1Cl)N1CCc2sccc2C1.O=S(=O)(O)O [CLOPIDOGREL BISULFATE]
Bacterial Biotransformation [1]: Compound metabolized
Bacterial Biotransformation [2]: Compound metabolized
Bacterial Biotransformation [3]: Compound NOT metabolized
Bacterial Biotransformation [4]: Compound metabolized
Bacterial Biotransformation [5]: Compound NOT metabolized
Bacterial Biotransformation [6]: Compound NOT metabolized
Bacterial Biotransformation [7]: Compound metabolized
Bacterial Biotransformation [8]: Compound NOT metabolized
Bacterial Biotransformation [9]: Compound NOT metabolized
Bacterial Biotransformation [10]: Compound NOT metabolized
Bacterial Biotransformation [11]: Compound NOT metabolized
Bacterial Biotransformation [12]: Compound NOT metabolized
Bacterial Biotransformation [13]: Compound NOT metabolized
Bacterial Biotransformation [14]: Compound metabolized
Bacterial Biotransformation [15]: Compound NOT metabolized
Bacterial Biotransformation [16]: Compound NOT metabolized
Bacterial Biotransformation [17]: Compound NOT metabolized
Bacterial Biotransformation [18]: Compound NOT metabolized
Bacterial Biotransformation [19]: Compound NOT metabolized
Bacterial Biotransformation [20]: Compound metabolized

CN(C)C(=O)Oc1cc(OC(=O)N(C)C)cc(C(O)CNC(C)(C)C)c1 (stereo not given) [BAMBUTEROL]
Bacterial Biotransformation [1]: Compound NOT metabolized
Bacterial Biotransformation [2]: Compound NOT metabolized
Bacterial Biotransformation [3]: Compound NOT metabolized
Bacterial Biotransformation [4]: Compound NOT metabolized
Bacterial Biotransformation [5]: Compound NOT metabolized
Bacterial Biotransformation [6]: Compound NOT metabolized
Bacterial Biotransformation [7]: Compound NOT metabolized
Bacterial Biotransformation [8]: Compound NOT metabolized
Bacterial Biotransformation [9]: Compound NOT metabolized
Bacterial Biotransformation [10]: Compound NOT metabolized
Bacterial Biotransformation [11]: Compound NOT metabolized
Bacterial Biotransformation [12]: Compound NOT metabolized
Bacterial Biotransformation [13]: Compound NOT metabolized
Bacterial Biotransformation [14]: Compound NOT metabolized
Bacterial Biotransformation [15]: Compound NOT metabolized
Bacterial Biotransformation [16]: Compound NOT metabolized
Bacterial Biotransformation [17]: Compound NOT metabolized
Bacterial Biotransformation [18]: Compound NOT metabolized
Bacterial Biotransformation [19]: Compound NOT metabolized
Bacterial Biotransformation [20]: Compound NOT metabolized

C[N+]12CCC(CC1)C(OC(=O)C(O)(c1ccccc1)c1ccccc1)C2.[Br-] (stereo not given) [CLIDINIUM BROMIDE]
Bacterial Biotransformation [1]: Compound NOT metabolized
Bacterial Biotransformation [2]: Compound NOT metabolized
Bacterial Biotransformation [3]: Compound NOT metabolized
Bacterial Biotransformation [4]: Compound NOT metabolized
Bacterial Biotransformation [5]: Compound NOT metabolized
Bacterial Biotransformation [6]: Compound NOT metabolized
Bacterial Biotransformation [7]: Compound NOT metabolized
Bacterial Biotransformation [8]: Compound NOT metabolized
Bacterial Biotransformation [9]: Compound NOT metabolized
Bacterial Biotransformation [10]: Compound NOT metabolized
Bacterial Biotransformation [11]: Compound NOT metabolized
Bacterial Biotransformation [12]: Compound NOT metabolized
Bacterial Biotransformation [13]: Compound NOT metabolized
Bacterial Biotransformation [14]: Compound NOT metabolized
Bacterial Biotransformation [15]: Compound NOT metabolized
Bacterial Biotransformation [16]: Compound NOT metabolized
Bacterial Biotransformation [18]: Compound NOT metabolized
Bacterial Biotransformation [19]: Compound NOT metabolized
Bacterial Biotransformation [20]: Compound NOT metabolized
